Patent publication US20090156577A1, “7-AMINO ALKYLIDENYL-HETEROCYCLIC QUINOLONES AND NAPHTHYRIDONES” (priority 2004, published 2009)
Converted amounts (≈) assume the structure as drawn. Read-outs that look alike come from different tables or passages of the source.

Test system: pathogenic bacteria
Assay: MIC by microdilution broth method (NCCLS M7-A4), in vitro antibacterial activity
Type: cell-based
How it was run: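 MIC read after 35 °C incubation for 16–20 h relative to drug-free growth wells. Cation-adjusted Mueller-Hinton broth with two-fold compound dilutions, organisms at roughly 5×10^4 CFU/well final. Method follows NCCLS document M7-A4.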

[1] = Staphylococcus aureus, Organism A: Staphylococcus aureus OC4172, read-out: MIC
[2] = Streptococcus pneumoniae, ATCC49619, Organism E: Streptococcus pneumoniae ATCC 49619, read-out: MIC
[3] = Streptococcus pneumoniae, Organism C: fluoroquinolone-resistant clinical isolate of Streptococcus pneumoniae (QRDR amino acid substitutions)
[4] = Streptococcus pneumoniae, Organism D: fluoroquinolone-resistant clinical isolate of Streptococcus pneumoniae (QRDR amino acid substitutions)
[5] = Streptococcus pneumoniae, Organism B: fluoroquinolone-resistant clinical isolate of Streptococcus pneumoniae (QRDR amino acid substitutions)

SMILES | MIC [1] | MIC [2] | MIC [3] | MIC [4] | MIC [5]
COc1c(N2CCC/C(=C\CN)C2)c(F)cc2c(=O)c(C(=O)O)cn(C3CC3)c12 [Compound 390, (E)-7-[3-(2-Amino-ethylidene)-piperidin-1-yl]-1-cyclopropyl-6-fluoro-8-methoxy-4-oxo-1,4-dihydro-quinoline-3-carboxylic acid] | 0.06 µg/mL (≈ 0.149 µM) | 0.5 µg/mL (≈ 1.25 µM) | 2 µg/mL (≈ 4.98 µM) | 4 µg/mL (≈ 9.96 µM) | 
COc1c(N2CC(=C(C)CN)C2)c(F)cc2c(=O)c(C(=O)O)cn(C3CC3)c12 [Compound 391, 7-[3-(2-Amino-1-methyl-ethylidene)-azetidin-1-yl]-1-cyclopropyl-6-fluoro-8-methoxy-4-oxo-1,4-dihydro-quinoline-3-carboxylic acid] | 0.06 µg/mL (≈ 0.155 µM) | 2 µg/mL (≈ 5.16 µM) | > 16 µg/mL | 8 µg/mL (≈ 20.6 µM) | 8 µg/mL (≈ 20.6 µM)
COc1c(N2CCC/C(=C(/C)CN)C2)c(F)cc2c(=O)c(C(=O)O)cn(C3CC3)c12 [Compound 392, (E)-7-[3-(2-Amino-1-methyl-ethylidene)-piperidin-1-yl]-1-cyclopropyl-6-fluoro-8-methoxy-4-oxo-1,4-dihydro-quinoline-3-carboxylic acid] | 0.25 µg/mL (≈ 0.602 µM) | 1 µg/mL (≈ 2.41 µM) | > 16 µg/mL | 8 µg/mL (≈ 19.3 µM) | 16 µg/mL (≈ 38.5 µM)
COc1c(N2CCC/C(=C(/Cl)CN)CC2)c(F)cc2c(=O)c(C(=O)O)cn(C3CC3)c12 [Compound 393, (Z)-7-[4-(2-Amino-1-chloro-ethylidene)-azepan-1-yl]-1-cyclopropyl-6-fluoro-8-methoxy-4-oxo-1,4-dihydro-quinoline-3-carboxylic acid] | 0.25 µg/mL (≈ 0.556 µM) | 0.5 µg/mL (≈ 1.11 µM) | 8 µg/mL (≈ 17.8 µM) | 2 µg/mL (≈ 4.45 µM) | 
COc1c(N2CCC/C(=C(\Cl)CN)CC2)c(F)cc2c(=O)c(C(=O)O)cn(C3CC3)c12 [Compound 394, (E)-7-[4-(2-Amino-1-chloro-ethylidene)-azepan-1-yl]-1-cyclopropyl-6-fluoro-8-methoxy-4-oxo-1,4-dihydro-quinoline-3-carboxylic acid] | 0.03 µg/mL (≈ 0.0667 µM) | 0.5 µg/mL (≈ 1.11 µM) | 4 µg/mL (≈ 8.89 µM) | 1 µg/mL (≈ 2.22 µM) | 1 µg/mL (≈ 2.22 µM)
NC/C(F)=C1\CCCN(c2c(F)cc3c(=O)c(C(=O)O)cn(C4CC4)c3c2OC(F)F)C1 [Compound 395, (Z)-7-[3-(2-Amino-1-fluoro-ethylidene)-piperidin-1-yl]-1-cyclopropyl-8-difluoromethoxy-6-fluoro-4-oxo-1,4-dihydro-quinoline-3-carboxylic acid] | 0.06 µg/mL (≈ 0.132 µM) | 0.5 µg/mL (≈ 1.1 µM) | 8 µg/mL (≈ 17.6 µM) | 0.5 µg/mL (≈ 1.1 µM) | 4 µg/mL (≈ 8.78 µM)
NC/C=C1/CCCN(c2c(F)cc3c(=O)c(C(=O)O)cn(C4CC4)c3c2OC(F)F)C1 [Compound 396, (Z)-7-[3-(2-Amino-ethylidene)-piperidin-1-yl]-1-cyclopropyl-8-difluoromethoxy-6-fluoro-4-oxo-1,4-dihydro-quinoline-3-carboxylic acid] | 0.03 µg/mL (≈ 0.0686 µM) | 0.25 µg/mL (≈ 0.572 µM) | 4 µg/mL (≈ 9.14 µM) | 0.5 µg/mL (≈ 1.14 µM) | 2 µg/mL (≈ 4.57 µM)
NC/C=C1\CCCN(c2c(F)cc3c(=O)c(C(=O)O)cn(C4CC4)c3c2OC(F)F)C1 [Compound 397, (E)-7-[3-(2-Amino-ethylidene)-piperidin-1-yl]-1-cyclopropyl-8-difluoromethoxy-6-fluoro-4-oxo-1,4-dihydro-quinoline-3-carboxylic acid] | 0.06 µg/mL (≈ 0.137 µM) | 0.5 µg/mL (≈ 1.14 µM) | 8 µg/mL (≈ 18.3 µM) | 2 µg/mL (≈ 4.57 µM) | 
C[C@H]1COc2c(N3CCC/C(=C(\F)CN)C3)c(F)cc3c(=O)c(C(=O)O)cn1c23 [Compound 398, (E)-9-[3-(2-Amino-1-fluoro-ethylidene)-piperidin-1-yl]-8-fluoro-(3S)-3-methyl-6-oxo-2,3-dihydro-6H-1-oxa-3a-aza-phenalene-5-carboxylic acid] | ≤ 0.015 µg/mL | 0.03 µg/mL (≈ 0.074 µM) | 0.5 µg/mL (≈ 1.23 µM) | 1 µg/mL (≈ 2.47 µM) | 0.25 µg/mL (≈ 0.617 µM)
C[C@H]1COc2c(N3CCC/C(=C(/F)CN)C3)c(F)cc3c(=O)c(C(=O)O)cn1c23 [Compound 399, (Z)-9-[3-(2-Amino-1-fluoro-ethylidene)-piperidin-1-yl]-8-fluoro-(3S)-3-methyl-6-oxo-2,3-dihydro-6H-1-oxa-3a-aza-phenalene-5-carboxylic acid] | 0.5 µg/mL (≈ 1.23 µM) | 2 µg/mL (≈ 4.93 µM) | > 16 µg/mL | > 16 µg/mL | 4 µg/mL (≈ 9.87 µM)
C[C@H]1COc2c(N3CCC/C(=C(\Cl)CN)C3)c(F)cc3c(=O)c(C(=O)O)cn1c23 [Compound 400, (E)-9-[3-(2-Amino-1-chloro-ethylidene)-piperidin-1-yl]-8-fluoro-(3S)-3-methyl-6-oxo-2,3-dihydro-6H-1-oxa-3a-aza-phenalene-5-carboxylic acid] | ≤ 0.015 µg/mL | 0.06 µg/mL (≈ 0.142 µM) | 0.5 µg/mL (≈ 1.19 µM) | 0.5 µg/mL (≈ 1.19 µM) | 0.25 µg/mL (≈ 0.593 µM)
C[C@H]1COc2c(N3CCC/C(=C\CN)C3)c(F)cc3c(=O)c(C(=O)O)cn1c23 [Compound 401, (E)-9-[3-(2-Amino-ethylidene)-piperidin-1-yl]-8-fluoro-(3S)-3-methyl-6-oxo-2,3-dihydro-6H-1-oxa-3a-aza-phenalene-5-carboxylic acid] | 1 µg/mL (≈ 2.58 µM) | 8 µg/mL (≈ 20.6 µM) | > 16 µg/mL | > 16 µg/mL | 
C[C@H]1COc2c(N3CCC/C(=C/CN)C3)c(F)cc3c(=O)c(C(=O)O)cn1c23 [Compound 402, (Z)-9-[3-(2-Amino-ethylidene)-piperidin-1-yl]-8-fluoro-(3S)-3-methyl-6-oxo-2,3-dihydro-6H-1-oxa-3a-aza-phenalene-5-carboxylic acid] | 0.25 µg/mL (≈ 0.645 µM) | 2 µg/mL (≈ 5.16 µM) | > 16 µg/mL | > 16 µg/mL | 16 µg/mL (≈ 41.3 µM)
C/C(CN)=C1\CCCN(c2c(F)cc3c(=O)c(C(=O)O)cn4c3c2OC[C@@H]4C)C1 [Compound 404, (Z)-9-[3-(2-Amino-1-methyl-ethylidene)-piperidin-1-yl]-8-fluoro-(3S)-3-methyl-6-oxo-2,3-dihydro-6H-1-oxa-3a-aza-phenalene-5-carboxylic acid] | 0.12 µg/mL (≈ 0.299 µM) | 0.5 µg/mL (≈ 1.25 µM) | 16 µg/mL (≈ 39.9 µM) | > 16 µg/mL | 4 µg/mL (≈ 9.96 µM)
COc1c(N2CCC/C(=C(\F)CN)C2)c(F)cc2c(=O)c(C(=O)O)cn([C@@H]3C[C@@H]3F)c12 [Compound 405, (E)-7-[3-(2-Amino-1-fluoro-ethylidene)-piperidin-1-yl]-6-fluoro-(1R,2S)-1-(2-fluoro-cyclopropyl)-8-methoxy-4-oxo-1,4-dihydro-quinoline-3-carboxylic acid] | ≤ 0.015 µg/mL | ≤ 0.25 µg/mL | 0.25 µg/mL (≈ 0.572 µM) | 0.25 µg/mL (≈ 0.572 µM) | ≤ 0.12 µg/mL
COc1c(N2CCC/C(=C(/F)CN)C2)c(F)cc2c(=O)c(C(=O)O)cn([C@@H]3C[C@@H]3F)c12 [Compound 406, (Z)-7-[3-(2-Amino-1-fluoro-ethylidene)-piperidin-1-yl]-6-fluoro-(1R,2S)-1-(2-fluoro-cyclopropyl)-8-methoxy-4-oxo-1,4-dihydro-quinoline-3-carboxylic acid] | 0.06 µg/mL (≈ 0.137 µM) | 0.5 µg/mL (≈ 1.14 µM) | 8 µg/mL (≈ 18.3 µM) | 2 µg/mL (≈ 4.57 µM) | 8 µg/mL (≈ 18.3 µM)
